The assay has as its target alkaline phosphatase, placental type (Homo sapiens). Briefly: inhibition of placental alkaline phosphatase – biochemical, uHTS hits, selectivity assay for mouse IAP inhibitor project, dose response (AID 488879). As to conditions: purified human placental alkaline phosphatase, enzymatic inhibition.

Active and inactive are the calls of the source. The rule behind the calls is not given here.

Turning to `CN1C(=O)/C(=C/C=C/c2ccco2)C(=O)NC1=S`, the IC50 (commonly the concentration that gives 50% inhibition) was 24.4 µM.
With `O=C(NC1CCCCC1)Oc1cc2oc(=O)sc2cc1Cl`, the IC50 was 5.95 µM.
`CCc1cc(Cn2nc(-c3ccccc3)cc2C(=O)NCc2cccc(Br)c2)on1`: the IC50 is > 100 µM (inactive).
As for `Oc1ccc(-c2csc(Nc3cccc4ccccc34)n2)cc1O`, the IC50 is > 100 µM (inactive).
Consider `S=C(NCc1ccc(Cl)cc1Cl)NC1CCCCC1`, for which the IC50 is > 100 µM (inactive).
With `S=C(NCCC(c1ccccc1)c1ccccc1)Nc1cccc(Cl)c1`, the IC50 is 72.7 µM.
Then `COc1ccc(CN2C3CCCC2CC(NC(=O)Nc2cccc(C)c2)C3)cc1` (stereo not drawn), with 30.5 µM; and `Cc1ccc(/C=C2\SC(=S)N(/N=C/c3cc([N+](=O)[O-])ccc3O)C2=O)o1`, with > 100 µM (inactive); and `CCOC(=O)c1ccc(N2CCN(c3ccccc3F)CC2)c(NC(=O)Nc2cccc(OC)c2)c1`, with > 100 µM (inactive).
Then `C#CCOCCOCCOCCNc1nc(N2CCN(C(=O)CCCCCCCCCCNC(=O)Cn3cc(CCCCCN)nn3)CC2)nc(N2CCN(C(=O)CCCCCCCCCCNC(=O)[C@@H](CCSC)n3cc(CCO)nn3)CC2)n1`, with > 100 µM (inactive); and `CCN1C(=O)/C(=C2\SC(=S)N(NC(=O)c3ccccc3O)C2=O)c2ccccc21`, with > 100 µM (inactive).
Take `CCOC(=O)C1=C(C)N=c2s/c(=C/c3cccc([N+](=O)[O-])c3O)c(=O)n2C1c1ccc(OC)cc1OC` (stereo not drawn): the IC50 was > 100 µM (inactive).
Then `O=C(O)CNS(=O)(=O)c1ccc2c3c(cccc13)C(=O)N2`, with > 100 µM (inactive); and `COc1ccc(C(=O)OCC(=O)Nc2ncc([N+](=O)[O-])s2)cc1OC`, with > 100 µM (inactive); and `Cc1ccc(Cl)c2c1=NC(=O)C=2c1[nH]c(=S)[nH]c1O`, with > 100 µM (inactive).
Then `COc1cc(OC)c2c(c1O)OC(c1ccccc1)CC2=O` (stereo not drawn), with > 100 µM (inactive); and `CCOc1ccccc1N1CCN(S(=O)(=O)c2ccc3c4c(cccc24)C(=O)N3)CC1`, with > 100 µM (inactive).
With `COc1cc(NC(=S)NCCC(c2ccccc2)c2ccccc2)cc(OC)c1`, the IC50 is > 100 µM (inactive).
For `Cc1cc(Cl)ccc1NC(=S)NCCC(c1ccccc1)c1ccccc1`, the IC50 was > 100 µM (inactive).
Next, `O=C(NN1C(=O)/C(=C/c2ccc(O)c(O)c2)SC1=S)c1ccccc1`: > 100 µM (inactive); `COc1ccc(Cl)cc1NC(=S)NCCC(c1ccccc1)c1ccccc1`: 39.4 µM.
Next, `CCN1/C(=C/C=C/c2sc3ccccc3[n+]2CC)Sc2ccccc21`: > 100 µM (inactive); `O=C1CSC(=S)N1/N=C/c1ccc(O)c(O)c1O`: > 100 µM (inactive).
Regarding `O=C(CN1C(=O)/C(=C/c2ccco2)SC1=S)Nc1ccc(O)c(C(=O)O)c1`, the IC50 is 17.2 µM.
Consider `Cc1ccc(S(=O)(=O)N2CCC(C(=O)Nc3ccc(C(C)C)cc3)CC2)cc1`, for which the IC50 was > 100 µM (inactive).
Next, `CCn1nc(C)c(CN2CCC(C(=O)Nc3cccc(-c4cccc(Cl)c4)c3)CC2)c1C`: > 100 µM (inactive); `N#Cc1c(SCC(=O)Nc2nc3ccccc3s2)sc2c(O)cc(=O)[nH]c12`: > 100 µM (inactive); `C#CCOCCOCCOCCNc1nc(N2CCN(C(=O)CCCCCCCCCCNC(=O)[C@@H](CCSC)n3cc(CCO)nn3)CC2)nc(N2CCN(C(=O)CCCCCCCCCCNC(=O)[C@H]([C@@H](C)CC)n3cc(CCCCN=C(N)N)nn3)CC2)n1`: > 100 µM (inactive).
As for `CCOC(=O)c1ccc(N2CCN(c3ccccc3F)CC2)c(NC(=O)Nc2ccccc2)c1`, the IC50 is > 100 µM (inactive).
Then `FC(F)Oc1ccc(NC(=S)NC2CCSc3ccccc32)cc1` (stereo not drawn), with > 100 µM (inactive).
Consider `O=C(CCNS(=O)(=O)c1ccc2[nH]c(=O)oc2c1)Nc1ccccc1`, for which the IC50 was 42.5 µM.
As to `CCN(c1ccccc1)S(=O)(=O)c1ccc2[nH]c(=O)[nH]c2c1`, the half-maximal inhibitory concentration (IC50) is 62.6 µM.
For `Cc1ccc(S(=O)(=O)Nc2ccc(O)c(Sc3ncn[nH]3)c2)cc1`, the IC50 is > 100 µM (inactive).
With `S=C(NCCC(c1ccccc1)c1ccccc1)Nc1ccc(Cl)cc1`, the IC50 was > 100 µM (inactive).
On to `COc1ccc(C2CC(c3ccccc3Cl)=NN2c2ccc(S(N)(=O)=O)cc2)cc1` (stereo not drawn), for which the IC50 is > 100 µM (inactive).
Take `O=C(COC(=O)c1ccccc1)Nc1ncc([N+](=O)[O-])s1`: the half-maximal inhibitory concentration (IC50) was 60.2 µM.
Then `O=C(Nc1ccc(Cl)cc1)NC1CCCCC1Cc1ccco1` (stereo not drawn), with > 100 µM (inactive); and `O=C(O)CC(C(=O)O)N1C(=O)/C(=C/C=C/c2ccco2)SC1=S` (stereo not drawn), with > 100 µM (inactive).
Then `CN=c1scc(-c2ccco2)n1/N=C/c1ccc(O)c(O)c1`, with > 100 µM (inactive).
`O=C(Nc1cccc(-c2cccc(Cl)c2)c1)C1CCN(C2CCC2)CC1`: the IC50 is 10.2 µM.
For `O=C1N=c2ccccc2=C1c1sc(=S)n(NC(=O)c2ccccc2)c1O`, the IC50 is 5.31 µM.
Then `O=C(CSc1nc2nn(-c3ccccc3)c(=O)c-2c2n1CCCCC2)c1ccc(O)c(O)c1`, with > 100 µM (inactive); and `COc1cc(NS(=O)(=O)c2ccc(NC(=S)NC(=O)/C=C/c3ccco3)cc2)ncn1`, with 55.1 µM.
Take `O=C(CSc1ncn[nH]1)CSc1ncn[nH]1`: the concentration for half-maximal inhibition (IC50) is 23 µM.
Then `FC(F)Sc1ccc(NC(=S)NC(c2ccccc2)c2ccccc2)cc1`, with > 100 µM (inactive).
Then `O=C(NNC(=O)c1cc2cc(Br)ccc2oc1=O)c1ccc(O)cc1O`, with > 100 µM (inactive).
Then `Cc1ccc(CNC(=S)NC2CCC(C(C)(C)C)CC2)cc1` (stereo not drawn), with > 100 µM (inactive); and `O=C1NN(c2cccc(Br)c2)C(=O)/C1=C/c1ccc(-c2cc([N+](=O)[O-])ccc2O)o1`, with > 100 µM (inactive); and `COC(=O)c1ccc(NS(=O)(=O)c2ccc3[nH]c(=O)oc3c2)cc1`, with > 100 µM (inactive).
On to `Cc1ccc(NC(=S)NCc2ccccc2)cc1S(=O)(=O)N1CCCCC1`, for which the IC50 was > 100 µM (inactive).
`O=C(N/N=C/c1cccnc1)c1cc(O)c(O)c(O)c1`: the IC50 was > 100 µM (inactive).
For `CCn1c(SCC(=O)c2ccc(O)c(O)c2)nnc1-c1ccccc1OC`, the IC50 was > 100 µM (inactive).
Next, `N#C/C(=C\c1ccc(O)c(O)c1)C(=O)Nc1cccc2ncccc12`: 7.32 µM; `CCN(C(=O)C(C)N1C(=O)/C(=C/c2ccco2)SC1=S)C1CCS(=O)(=O)C1` (stereo not drawn): 7.78 µM.
For the compound `Cc1cc(C)cc(NC(=S)NC2CC3CCCC(C2)N3Cc2cccs2)c1` (stereo not drawn), the IC50 was 42 µM.
Next, `Cc1cc(F)ccc1S(=O)(=O)Nc1ccc(O)c(Sc2ncn[nH]2)c1`: 6.94 µM.
Take `Oc1cc(O)c2c(c1)OC(c1ccc(O)c(O)c1)C(O)C2` (stereo not drawn): the IC50 is > 100 µM (inactive).
Then `Cc1ccc(C)c(NS(=O)(=O)c2ccc3[nH]c(=O)oc3c2)c1`, with > 100 µM (inactive).
Next, `CCn1cc(CN2CCC(C(=O)Nc3cccc(-c4cccc(Cl)c4)c3)CC2)c(C)n1`: > 100 µM (inactive).
Next, `O=C(CCN1C(=O)/C(=C/c2ccco2)SC1=S)Nc1ccc(O)cc1C(=O)O`: > 100 µM (inactive).
As for `O=C1c2cccc(O)c2C(=O)c2c(O)cc(CO)cc21`, the IC50 was > 100 µM (inactive).
Consider `O=C1/C(=C/c2ccc(O)c(O)c2)Oc2cc(O)ccc21`, for which the 50% inhibitory concentration (IC50) was 67.2 µM.
Then `C#CCOCCOCCOCCNc1nc(N2CCN(C(=O)CCCCCCCCCCNC(=O)[C@H](CO)n3cc(CCCSC)nn3)CC2)nc(N2CCN(C(=O)CCCCCCCCCCNC(=O)[C@H](CCCN=C(N)N)n3cc(C[C@@H](C)CC)nn3)CC2)n1`, with > 100 µM (inactive); and `NS(=O)(=O)c1ccc(-c2ccc(/C=C3\NC(=S)NC3=O)o2)cc1`, with > 100 µM (inactive); and `Cn1nc([N+](=O)[O-])nc1S(C)(=O)=O`, with > 100 µM (inactive).
As to `O=C(NCCCCc1ccccc1)NC[C@@H]1CC[C@@H](Cc2ccc(-c3ccccc3)cc2)O1`, the half-maximal inhibitory concentration (IC50) was 6.58 µM.
Take `Cc1ccc(N/C(N)=N/c2nc(C)cc(N3CCCCC3)n2)c(C)c1`: the IC50 was 26.3 µM.
For the compound `C#CCOCCOCCOCCNc1nc(N2CCN(C(=O)CCCCCCCCCCNC(=O)Cn3cc(C[C@@H](C)O)nn3)CC2)nc(N2CCN(C(=O)CCCCCCCCCCNC(=O)[C@@H](CCSC)n3cc(CCO)nn3)CC2)n1`, the IC50 is 39.9 µM.
In the case of `Oc1cc(O)c2c(c1)O[C@H](c1ccc(O)c(O)c1)[C@@H](O)C2`, the IC50 is > 100 µM (inactive).
Then `CN(CC(=O)NC(c1ccccc1)c1ccccc1)Cc1nc2ccccc2c(=O)[nH]1`, with > 100 µM (inactive).
`N#Cc1c(SCC(=O)Nc2nccs2)sc2c(O)cc(=O)[nH]c12`: the IC50 is > 100 µM (inactive).
In the case of `C=CCn1cc(CN2CCC(C(=O)Nc3cccc(-c4cccc(Cl)c4)c3)CC2)c(C)n1`, the IC50 was 34.3 µM.
Next, `O=C(/C=C/c1ccco1)NC(=S)Nc1ccc(C(=O)O)cc1`: > 100 µM (inactive); `NS(=O)(=O)c1cc(C(=O)N=Nc2c(O)[nH]c3ccccc23)ccc1Cl`: > 100 µM (inactive); `COC(=O)C/C=N/N=C1/NC(=O)/C(=C/C(=O)O)S1`: 8.44 µM.
With `CC(C(=O)O)N1C(=O)/C(=C/C=C/c2ccco2)SC1=S` (stereo not drawn), the IC50 is > 100 µM (inactive).
Then `Cc1c(Cl)cccc1NC(=S)NCCC(c1ccccc1)c1ccccc1`, with > 100 µM (inactive); and `NS(=O)(=O)c1ccc2c(c1)oc(=O)c1cc(S(N)(=O)=O)ccc12`, with > 100 µM (inactive); and `CCOc1ccc(S(=O)(=O)Nc2ccc(O)c(Sc3ncn[nH]3)c2)cc1`, with 20.5 µM.
Then `O=C(NN1C(=O)CSC1=S)C(=O)NN1C(=O)CSC1=S`, with > 100 µM (inactive); and `COc1cc(/C=C/[N+](=O)[O-])ccc1OC(=O)c1cc2ccccc2oc1=O`, with > 100 µM (inactive); and `O=C1CC(c2ccc(O)c(O)c2)Oc2c1ccc(O)c2O` (stereo not drawn), with > 100 µM (inactive).
Next, `CC(C)=CCc1c(O)c(CC=C(C)C)c2c(c1O)-c1cc(O)c(O)cc1CC2`: > 100 µM (inactive).

The values are drawn from PubChem BioAssay AID488879 (Sanford-Burnham Center for Chemical Genomics, 2010).
